Entries after “also recorded” stand apart in the source; their conditions may differ.
Experiments:
[1] = Sponge cleavage condition optimization (visual monitoring of sponge incubated with reductant); details: 37° C.; for Remarks: sponge cleavage: 1 mM reductant in William's E medium
Method: For easy visualization during cleavage, HPCSS Gal sponges were pre-soaked in 0.25 mg/mL propidium iodide overnight (Molecular Probes, USA). The stained sponges were incubated with 3 mL each of TCEP and DTT (as known strong reductant) per sponge at various concentrations (25, 10, 5, 3 and 1 mM) in 37° C., 5% CO2 and 95% incubator. The morphological changes of the sponge were monitored visually every 15 minutes.

[2] = reduction of disulfide bonds; cited from earlier work
primary rat hepatocyte = test: TCEP toxicity study in primary rat hepatocyte (MTT); format: cell-based; details: for primary rat hepatocyte viability: MTT, ratio to untreated
Method: Primary rat hepatocyte was seeded on collagen coated well in 24-well plate format (0.3×10^6 cell per well). The culture was maintained for 3 days and the medium was replenished every day. On the 3rd day, the cells were incubated with TCEP solution in Williams' E medium at pre-determined concentrations and time; 5 mM for 1.5 hour, 10 and 25 mM for 30 minutes each. The duration of the incubation was chosen based on the ability of the associated TCEP concentrations to completely cleave HPCSS Gal sponge. Upon incubation, the morphology of the cells was monitored and followed with further incubation of 1 mg/mL (3-(4,5-dimethylthiazol-2-yl)-2,5-diphenyltetrazolium bromide (MTT) solution for 3 hours. The formed formazan product in each well was dissolved with 300 μL of 0.04 M HCl in isopropanol and its optical density was measured by TECAM Infinite M1000 microplate reader at 570 nm. Cell viability was determined by calculating the ratio of treated sample absorbance against untreated sample absorbance.

[3] = Dynamic of sponge cleavage with time lapse imaging; details: 10 mM TCEP, 37° C., confocal time lapse
Method: The propidium iodide-prestained HPCSS Gal sponges were incubated with 10 mM TCEP and its macroporosity changes were monitored by Olympus fluoview FV1000 equipped with 37° C. heated chamber with a 60× water lens for 30 minutes with 2 minutes time interval. Images were analysed using IMARIS and images assembled using Adobe illustrator CS3.

[4] = tested on: CYP1A2, CYP2B2 and CYP3A2; test: RT-PCR gene expression of cytochrome P450 genes in hepatocyte spheroids; format: cell-based; details: 10 mM TCEP, 30 minutes, rat hepatocyte spheroids
Method: Rat hepatocyte, E1 and mESCs spheroids were retrieved from the sponge by incubating cell seeded-cleavable sponge with 3 mL of 10 mM TCEP in respective cell culture mediums in each well of 12-well plate for 30 minutes at 37° C. (incubator set up 5% CO2 and 95% humidity). The cleaved sponge solution from each well was mixed thoroughly by 3 mL plastic dropper and then transferred into 15 mL falcon tube. This solution was further diluted with 3 mL pre-warmed DPBS and centrifuged at 100×g for 10 minutes. This washing step was repeated three times to remove TCEP solution completely. Eventually, the retrieved hepatocyte spheroids were resuspended in fresh mediums and replated on collagen coated dish or poly-L-lysine coated dish for further assays or spheroids manipulation.
RNA was extracted from hepatocytes cultured as 3D spheroids in HPCSS Gal sponges by RLT lysis buffer (Qiagen, Singapore). Total RNA concentration was quantified by a Nanodrop (Thermoscientific) and 1 μg of RNA was converted to cDNA by High Capacity RNA-to-cDNA (Applied Biosystems). Primers were designed using Primer 3 and real-time PCR was performed by using SYBR green fast master mix on a ABI 7500 Fast Real-Time PCR system (Applied Biosystems). Gene expression was calculated using the ΔΔCT method normalized to GAPDH. The primers used in experiment are shown below.

[5] = tested on: F-actin, E-cadherin and MRP2; test: Immunofluorescence staining of polarity markers and cell-cell junction of retrieved hepatocyte spheroids; format: cell-based, rat; details: 10 mM TCEP to cleave the sponge
Method: To stain F-actin, E-cadherin and MRP2, hepatocytes spheroids cultured for 72 hours post-seeding in the sponges and retrieved from HPCSS Gal sponges were fixed in 3.7% paraformaldehyde for 10 minutes. For staining F-actin, the cells were permeabilized for 5 minutes in 0.1% Triton X-100 and incubated with 1 μg/mL TRITC-phalloidin (Molecular Probes, USA) for 20 minutes. For E-cadherin and MRP2 staining, following washing and blocking with 2% BSA/0.2% Triton-X 100 the spheroids were incubated overnight at 4° C. with primary antibodies: anti-rat E-cadherin (BD, USA) and rabbit anti-rat MRP2 (Sigma Aldrich, Singapore), respectively. Secondary antibodies used were goat anti-mouse and goat anti-rabbit 488 and 555 (Molecular Probes, USA), respectively. Nuclei stain was captured using DAPI stain (Vecta Shield, UK). Images were captured using Olympus fluoview FV1000 with a 60× water lens. Images were analysed using IMARIS and assembled using Adobe illustrator CS3.

cells = details: 10 mg/mL, 24 hours of exposure; cited from earlier work
[6] = 3 mM reductant in William's E medium
[7] = 5 mM reductant in William's E medium
[8] = 25 mM reductant in William's E medium

Row | SMILES | Remarks: sponge cleavage [1] | Remarks: time within which sponge cleaved [1, 6] | Remarks: time within which sponge cleaved [1, 7] | Remarks: time within which sponge cleaved ([1]; 10 mM reductant in William's E medium) | Remarks: time within which sponge cleaved [1, 8] | pH range at which the reductant is effective [2] | primary rat hepatocyte viability (primary rat hepatocyte; 5 mM, 1.5 hour) [%] | primary rat hepatocyte viability (primary rat hepatocyte; 10 mM, 30 minutes) [%] | primary rat hepatocyte viability (primary rat hepatocyte; 25 mM, 30 minutes) [%] | cell damage in phase contrast images (primary rat hepatocyte; hepatocytes with and without TCEP incubation) | maintenance of cell viability (FIG. 10 legend) (primary rat hepatocyte; rat hepatocyte, all TCEP configurations tested) [%] | time at which sponge macroporous networks had shrunken significantly [3] [min] | effect of TCEP incubation on CYP genes [4] | effect of TCEP incubation on polarity markers and cell-cell junction [5] | remaining viable cells (cells) [%]
1 | O[C@H](CS)[C@H](O)CS (racemic) [DTT, dithiothreitol] | Sponge not | within 2 hours | within 1.5 hour | within 30 minutes | within 30 minutes | 7-8.1 | – | – | – | – | – | – | – | – | –
2 | O=C(O)CCP(CCC(=O)O)CCC(=O)O [TCEP, tris(2-carboxyethyl)phosphine] | Sponge not | within 2 hours | within 1.5 hour | – | within 30 minutes | 1.5-8.5 | 79.75±10.71 | 87.42±8.03 | 93.06±6.96 | No significant cell damage | > 80 | 6 | did not show any significant detrimental effect; also recorded: no significant effect | does not show harmful effect | 60
